Assay results: US6573078B1, “Compounds which inhibit HIV replication” (priority 1992, dated 2003)
Entries after “also recorded” stand apart in the source; their conditions may differ.

Tests used:
HIV-1LAI virus = assay: Peptide blockade of HIV-1 induced cell-cell fusion (syncytia formation; Molt4 cells co-cultivated with chronically infected CEM cells); format: cell-based; set-up: Anti-fusogenic activity (in words): dose or concentration left out as unconfirmed; details: for Inhibitory / anti-viral / biological activity (in words): cell fusion assay; for No. Syncytia/well: Table 3, ctrl cells only = 85; for Fusion: quantity of compound required for 90% reduction in number of syncytia: control = 90 syncytia
Experimental: The initial screen for antiviral activity of the peptides shown in FIG. 1 was for blockade of syncytium formation induced by overnight co-cultivation of uninfected Molt4 cells with chronically infected (HIV-1IIIB) CEM cells.
Approximately 7×10^4 Molt cells were incubated with 1×10^4 CEM cells chronically infected with the HIV-1LAI virus in 96 well plates (one-half area cluster plates;Costar. Cambridge, Mass.) in a final volume of […] culture media in accordance with known techniques (T. Matthews et al., Proc. Natl. Acad. Sci. U.S.A. 84, 5424 (1987)). Peptide inhibitors were added in a volume of […] and the cell mixtures were incubated for 24 hr at 37° C. At that time point, multinucleated giant cells were estimated by microscopic examination at a 40× magnification which allowed visualization of the entire well in a single field.

HIV-1LAI = assay: Peptide inhibition of infection by cell-free virus (neutralization assay; AA5 cells, RT activity readout); format: cell-based
Experimental: Cell cultures were maintained in 96-well microtiter plates for 8 days by addition of fresh medium (but no further addition of peptides) every other day. On the eighth day post-infection, supernatant was tested for reverse transcriptase activity as evidence of successful infection.
The micro RT assay was adapted from Goff et al. (J. Virol. 38, 239 (1981)) and Willey et al. (J. Virol. 62, 139 (1988)). Supernatants from virus/cell cultures are made 1% in Triton-X100. A […] sample of supernatant was added to 50 ml of RT cocktail in a 96 well U bottom microtiter plate and the samples incubated at […] for 90 min. The cocktail contained 75 mM KCl, 2 mM dithiothreitol, 5 mm Mgcl2l 5 mg/ml poly A (Pharmacia cat. No. 27-4110-01), 0.25 units/ml oligo dT (Pharmacia cat. No. 27-7858-01), 0.05% NP40, 50 mM Tris-HC1, pH 7.8, 0.5 mM non-radioactive dTTP, and 10 mCi/ml ^32p-dTTP (Amersham cat. No. PB.10167). After the incubation period, 40 ml of reaction mixture was applied to a Schleicher and Schuell NA45 membrane (or DE81 paper) saturated in 2×SSC buffer (0.3M NaCl and […]) held in a Schleicher and Schuell Minifold over one sheet of GB003 filter paper. Each well of the minifold was washed four times with […] 2×SSC. The membrane was removed from the minifold and washed 2 more times in a pyrex dish with an excess of 2×SSC. Finally the membrane was drained on absorbent paper, placed on Whatman #3 paper, covered with saran wrap, and exposed to film overnight.
The HIV1LAI virus was obtained from R. Gallo (see M. Popovic et al., Science 224, 497 (1984)) and propagated in CEM cells cultured in RPMI 1640 containing 10-% FCS. Supernatant from the infected CEM cells was passed through a […] and the infectious titer estimated in a microinfectivity assay using the AA5 cell line to support virus replication. For this purpose 25 ml of serially diluted virus was added to 75 ml AA5 cells at 2×10^5/ml in a 96 well microtiter plate. Each virus dilution was tested in triplicate. Cells were cultured for eight days by addition of fresh medium every other day. On day 8 post infection supernatant samples were tested for virus replication as evidenced by RT activity released to the supernatant in accordance with the procedure described above. The TCID50 was calculated according to the Reed and Muench formula in accordance with known techniques. See L. Reed et al., Amer. J. Hygiene 27, 493 (1938) . The titer of the HIV-1LAI stock used for these studies, as measured on the AA5 cell line, was approximately 1×10^7TCID50/ml. The two primary isolates were obtained from PBMCs of two infected donors, one from Brazil (HIV-1Br3) and the other Trinidad (HIV-1Q72775) by co-cultivation with PHA-blasted normal donor PBMCs in RPMI 1640 containing IL2. The infectious titers of the primary virus stocks were estimated by titration onto normal human PHA blasted PBMCs in a 96 well microtiter plate, again using RT activity released to the supernatant as evidence for successful infection. The infectious titer of both of these isolates was estimated to be approximately 1×10^3 TCID100/ml.
The peptides were next tested for blockade of infection by cell-free virus. The results shown in FIG. 3 are representative of several experiments in which the DP-107, 125, and (CS3) peptides were compared for potency in the blockade of HIVLAI, infection of AA5 cells. Each level of peptide was incubated in triplicate with about 500 TCID50 of virus and cells. After 7 days of culture, cell-free supernatant was tested for the presence of RT activity as a measure of successful infection.

[1] = Circular dichroism spectra / thermal melt (secondary structure in solution); format: physicochemical; details: for Conformation by CD spectra (in words): 37° C.
Experimental: (A) and 37° C. (B). Concentration dependence of the midpoint of the temperature dependence (Tm) of the CD signal (C). Tm corresponds to the maxima of the first derivative of the CD melt curve. The CD spectra were obtained in […], 150 mM sodium chloride buffer at pH 7.0.
Circular dichroism spectra were measured in 10 mM sodium phosphate, 150 mM sodium chloride, pH 7.0 buffer at approximately […] using a 1 cm pathlength cell on a Jobin/Yvon Autodichrograph Mark V CD spectrometer. Peptide concentrations were determined from A280 using Edlehoch's method (Biochemistry 6, 1948 (1967)).

CEM cells = assay: Cytotoxic or cytostatic effects on CEM cells grown in presence of peptide; format: cell-based; details: 50 mg/ml (highest concentration tested), three days, fresh peptide added each day
[2] = molecular target: the molecule itself; assay: CD thermal melt, concentration dependence of Tm (self-association)
[3] = EXP. 1, peptide concentration 1.5 micrograms/ml, 0 peptide = 89
[4] = EXP. 1, peptide concentration 3 micrograms/ml, 0 peptide = 89
[5] = EXP. 1, peptide concentration 6 micrograms/ml, 0 peptide = 89
[6] = EXP. 1, peptide concentration 12 micrograms/ml, 0 peptide = 89
[7] = EXP. 1, peptide concentration 25 micrograms/ml, 0 peptide = 89
[8] = EXP. 1, peptide concentration 50 micrograms/ml, 0 peptide = 89
[9] = peptide concentration 1.25 ug/ml on IIIB
[10] = peptide concentration 2.5 ug/ml on IIIB
[11] = peptide concentration 5 ug/ml on IIIB
[12] = peptide concentration 10 ug/ml on IIIB
[13] = peptide concentration 20 ug/ml on IIIB
[14] = peptide concentration 40 ug/ml on IIIB

Molecule | Neutraliz: quantity of compound required for 90% reduction in infectivity (HIV-1LAI) | No. Syncytia/well (HIV-1LAI virus; [9]) | No. Syncytia/well (HIV-1LAI virus; [10]) | No. Syncytia/well (HIV-1LAI virus; [11]) | No. Syncytia/well (HIV-1LAI virus; [12]) | No. Syncytia/well (HIV-1LAI virus; [13]) | No. Syncytia/well (HIV-1LAI virus; [14]) | Fusion: quantity of compound required for 90% reduction in number of syncytia (HIV-1LAI virus) | further results
DP-31: peptide representing an overlapping immunodominant site of gp41 (SEQ ID NO: 5); sequence only in FIG. 1 (H-ERYLKDQQLLGIWGCSCKLICG-OH; cysteine pairing not given here) | – | – | – | – | – | – | – | – | Syncytia Number (HIV-1LAI virus; [3]): 75; Syncytia Number (HIV-1LAI virus; [4]): 90; Syncytia Number (HIV-1LAI virus; [5]): 87; Syncytia Number (HIV-1LAI virus; [6]): 78; Syncytia Number (HIV-1LAI virus; [7]): 80; Syncytia Number (HIV-1LAI virus; [8]): 85; Inhibitory / anti-viral / biological activity (in words) (HIV-1LAI virus): failed to show inhibitory activity
CGGNNLLRAIEAQQHLLQLTVWGIKQLQARILAVERYLKDQGGC [DP-130] | <1 µg/mL | 47 | 0 | 0 | 0 | 0 | 0 | 2 µg/mL | –
QQLLDVVKRQQEMLRLTVWGTKNLQARVTAIEKYLKDQ [DP-118] | – | 74 | 78 | 80 | 77 | 0 | 0 | – | –
LQARILAVERYLKDQQQ [DP-116, reference compound] | >30 µg/mL | – | – | – | – | – | 77 | >40 µg/mL | Blockade of HIVLAI infection of AA5 cells (in words) (HIV-1LAI; about 500 TCID50 of virus, RT activity in supernatant, FIG. 3): no hint of anti-viral effect; Anti-fusogenic activity (in words) (HIV-1LAI virus): no evidence of anti-fusogenic activity; Syncytia Number (HIV-1LAI virus; [3]): 82; Syncytia Number (HIV-1LAI virus; [4]): 89; Syncytia Number (HIV-1LAI virus; [5]): 92; Syncytia Number (HIV-1LAI virus; [6]): 93; Syncytia Number (HIV-1LAI virus; [7]): 82; Syncytia Number (HIV-1LAI virus; [8]): 89; Conformation by CD spectra (in words) [1]: random coil conformations; Stable secondary structure by CD (in words) ([1]; even at low temperatures and high concentrations): no evidence for stable secondary structure
NNLLRAIEAQQHLLQLTVWGIKQLQARILAVERYLKDQGGC [DP-129] | <1 µg/mL | 0 | 0 | 0 | 0 | 0 | 0 | <1 µg/mL | –
NNLLRAIEAQQHLLQLTVWGPKQLQARILAVERYLKDQ (Ac-NNLLRAIEAQQHLLQLTVWGPKQLQARILAVERYLKDQ-NH2) [DP-121] | >30 µg/mL | – | – | – | – | – | 79 | >40 µg/mL | Syncytia Number (HIV-1LAI virus; EXP. 3, peptide concentration 2.5 micrograms/ml, 0 peptide = 76): 68; Syncytia Number (HIV-1LAI virus; EXP. 3, peptide concentration 5 micrograms/ml, 0 peptide = 76): 60; Syncytia Number (HIV-1LAI virus; EXP. 3, peptide concentration 10 micrograms/ml, 0 peptide = 76): 65; Syncytia Number (HIV-1LAI virus; EXP. 3, peptide concentration 20 micrograms/ml, 0 peptide = 76): 71; Syncytia Number (HIV-1LAI virus; EXP. 3, peptide concentration 40 micrograms/ml, 0 peptide = 76): 69; Inhibitory / anti-viral / biological activity (in words) (HIV-1LAI virus): did not exhibit anti-viral activity; also recorded: no sign of inhibitory activity; Conformation by CD spectra (in words) [1]: random coil conformations; also recorded: failed to exhibit helix related signals
Ac-NNLLRAIEAQQHLLQLTVWGIKQLQARILAVERYLKDQ-NH2 [DP-107] | – | – | – | – | – | – | – | – | Viability and growth rate of CEM cells (CEM cells): same viability and growth rate as control cultures
NNLLRAIEAQQHLLQLTVWGAKQLQARILAVERYLKDQ [DP-140] | 14 µg/mL | – | – | – | – | – | – | 17 µg/mL | –
GIKQLQARILAVERYLKDQQ [DP-122] | >30 µg/mL | – | – | – | – | – | 73 | >40 µg/mL | –
IEAQQHLLQLTVWGIKQLQARILAVERYLKDQ [DP-123] | >30 µg/mL | 80 | 69 | 76 | 86 | 55 | 4 | 40 µg/mL | –
CGGNNLLRAIEAQQHLLQLTVWGIKQLQARILAV [DP-136] | >30 µg/mL | – | – | – | – | – | – | >40 µg/mL | –
NNLLRAIEAQQHLLQLTVWGIKQLQARILAV [DP-127] | 23 µg/mL | 87 | 53 | 20 | 0 | 0 | 0 | 7 µg/mL | –
NNLLRAIEAQQHLLQLTVWGSKQLQARILAVERYLKDQ [DP-139] | >30 µg/mL | – | – | – | – | – | – | >40 µg/mL | –
Ac-NNLLRAIEAQQHLLQLTVWGIKQLQARILAVERYLKDQ-NH2 (Synthetic peptide; also called peptide DP-107) [DP-107] | – | – | – | – | – | – | – | – | binding result [2]: binds
